{
  "source": "patent US10821117B2",
  "about": "“Estrogen therapy for brain gray matter atrophy and associated disability” (The Regents of the University of California, priority 2014, dated 2020)",
  "type_in_all_cases": "in vivo, human",
  "key": {"[1]": {"tested_on": "relapsing remitting multiple sclerosis patients", "assay": "Voxel-based morphometry (VBM) of gray matter loss", "conditions": "at 12 months; FDR P≤0.05; FIG. 9", "experimental": "Voxel-based morphometry (VBM) analyses were performed as described by Kurth et al. (Neuroimage Clin. 4:454 (2014)). All subjects included in the VBM cohort were required to have at least reached month 12 of the study, and all images had to pass quality control before and after image preprocessing to be included in the VBM cohort. Using this criteria, the VBM cohort consisted of Ill subjects (62 in the estriol+GA, and 49 in the placebo+GA group) from 13 sites for month 12 analyses, and 86 of these subjects (45 in the estriol+GA, and 41 in the placebo+GA group) for 24 month analyses.\nBrain images were preprocessed utilizing SPM8 and the VBM8 toolbox. White matter lesions were in-painted to minimize their impact based on manual delineations that were used for the analysis of new T2 lesions. […]\nFor the statistical analysis, a general linear model was applied that used the smoothed gray matter segments as the dependent and group x time as the independent variable. […] Applying this model, the interaction between group and time was calculated using T-tests to investigate group differences in local gray matter changes between month 0 and month 12 (month 0 and month 24, respectively). […]"}, "[2]": {"tested_on": "multiple sclerosis patients", "assay": "Total (whole) brain gray matter volume change on brain MRI, SIENAX segmentation (Example 1)", "conditions": "over 24 months", "protocol": "The effect of estriol treatment as compared to placebo treatment on total (whole) brain gray matter (GM) atrophy was assessed since gray matter atrophy is a surrogate marker for permanent disability in MS. […] The GM volume change from the month 0 scan to the month 12 scan and then the volume change from the month 0 scan to the month 24 scan was calculated."}, "[3]": {"tested_on": "relapsing remitting multiple sclerosis patients", "assay": "Expanded Disability Status Scale (EDSS) change and disability progression", "conditions": "for Proportion of pts with progression at 24 months % (95% CI): EDSS progression sustained at least 6 months, Kaplan-Meier; for EDSS change at 24 months (median): within group comparison vs baseline, negative values indicate improvement", "experimental": "Standardized neurologic assessments, including an EDSS assessment, were performed at months 0, 3, 6, 12, 18 and 24, and at the time of a suspected relapse (as an additional unscheduled visit). EDSS assessments were performed by physicians who were trained either by in-person training or online (www.Neurostatus.net). MRI scans were obtained at screening and at months 0, 3, 6, 12 and 24. Subjects were seen or contacted every 3 months for compliance assessments and for dispensing medications.\nSecondary efficacy end points included the proportion of subjects with a relapse over all 24 months, a change in PASAT cognitive testing, a sustained improvement in PASAT cognitive testing (as defined by an increase of at least 3 points sustained over at least 6 months), a change in EDSS scores from baseline, disability progression (as defined by an increase in EDSS of at least 1.0 point in subjects with a baseline score of 1.0 or higher, or by an increase of at least a 1.5 points in subjects with a baseline score of 0, each sustained for at least 6 months). Tertiary end points included gray matter atrophy on MRI.\nFor the time to first relapse analysis, Kaplan Meier curves and log-rank test were used to estimate and compare the relapse free probabilities of the two treatment groups. Cox proportional hazards model was used to compare the time to relapse free probabilities between two groups adjusting for covariates. The fixed effects include treatment groups (Estriol+GA vs Placebo+GA), baseline lesion number, age and baseline EDSS score. The random effect of subject is included in the model to account for within subject correlation.\nLinear mixed effects model was carried out to compare the percent change in whole gray matter and cortical gray matter between treatment groups. For the exploratory endpoints of EDSS, PASAT, and brain volume measures, linear mixed effects model was used to compare treatment groups at 12 and 24 months. Linear mixed effects model was carried out to evaluate the association between PASAT change and percent brain volume change."}, "[4]": {"tested_on": "relapsing remitting multiple sclerosis patients", "assay": "Delayed Recall Test, proportion with perfect score", "experimental": "(§1) The estriol and placebo subjects were administered the Delayed Recall Test periodically throughout the study. A perfect score on the test is 7, and for both treatment groups, the median score was also 7. Therefore, performance was assessed by the proportion of subjects in each group who achieved a perfect score on the test. […] Logistic regression for repeated measurement was used to compare the probability having a perfect score between the two treatment groups, adjusting for age, education level, and baseline recall (Table 9)."}, "[5]": {"tested_on": "relapsing remitting multiple sclerosis patients", "assay": "7/24 Spatial Recall Test, proportion with perfect score", "experimental": "as §1, with “7/24 Spatial” for “Delayed”, “7).” for “9).”"}, "[6]": {"conditions": "logistic regression for repeated measurement, adjusted for age, education level, baseline recall"}},
  "data": [
    {"substance": "glatiramer acetate [Placebo + GA]", "values": [
      {"measurement": "voxel-wise gray matter loss as compared to baseline", "setting": "[1]", "result": "significant localized gray matter loss"},
      {"measurement": "voxel-wise gray matter loss, between group comparison", "setting": "[1]", "result": "significantly more gray matter loss"},
      {"measurement": "overall rate of GM atrophy", "setting": "[2]", "result": "over 1.0 % per year"},
      {"measurement": "Proportion of pts with progression at 24 months % (95% CI)", "setting": "[3]", "result": "15.8 (8.8-27.6) %"},
      {"measurement": "Proportion of pts with progression at 24 months % (95% CI)", "setting": "[3]; listed as Placebo plus GA", "result": 15.8, "unit": "%"},
      {"measurement": "EDSS scores over 24 months, slope", "setting": "[3]; FIG. 6", "result": "−0.01"},
      {"measurement": "EDSS change at 24 months (median)", "setting": "[3]", "result": 0},
      {"measurement": "EDSS change at 24 months (median)", "setting": "[3]; listed as Copaxone® plus placebo", "result": "no change"},
      {"measurement": "EDSS change at 24 months (median)", "setting": "[3]; listed as Placebo plus GA", "result": "stable and unchanged"},
      {"measurement": "Percentage of subjects achieving a perfect score on the Delayed Recall Test", "setting": "[4]; Month 3", "result": "65.9 (48/74) %"},
      {"measurement": "Percentage of subjects achieving a perfect score on the Delayed Recall Test", "setting": "[4]; Month 6", "result": "76.1 (54/71) %"},
      {"measurement": "Percentage of subjects achieving a perfect score on the Delayed Recall Test", "setting": "[4]; Month 12", "result": "69.8 (44/63) %"},
      {"measurement": "Percentage of subjects achieving a perfect score on the Delayed Recall Test", "setting": "[4]; Month 18", "result": "65.4 (36/55) %"},
      {"measurement": "Percentage of subjects achieving a perfect score on the Delayed Recall Test", "setting": "[4]; Month 24", "result": "75.0 (42/56) %"},
      {"measurement": "Delayed Recall Test, Estimated perfect score rate (95% CI)", "setting": "[4]; [6]", "result": "73.2 (65.7, 79.5) %"},
      {"measurement": "Percentage of subjects achieving a perfect score on the 7/24 Spatial Recall Test", "setting": "[5]; Month 3", "result": "60.8 (45/74) %"},
      {"measurement": "Percentage of subjects achieving a perfect score on the 7/24 Spatial Recall Test", "setting": "[5]; Month 6", "result": "73.2 (52/71) %"},
      {"measurement": "Percentage of subjects achieving a perfect score on the 7/24 Spatial Recall Test", "setting": "[5]; Month 12", "result": "71.4 (45/63) %"},
      {"measurement": "Percentage of subjects achieving a perfect score on the 7/24 Spatial Recall Test", "setting": "[5]; Month 18", "result": "63.6 (35/55) %"},
      {"measurement": "Percentage of subjects achieving a perfect score on the 7/24 Spatial Recall Test", "setting": "[5]; Month 24", "result": "75.0 (42/56) %"},
      {"measurement": "7/24 Spatial Recall Test, Estimated perfect score rate (95% CI)", "setting": "[5]; [6]", "result": "69.8 (63.4, 75.5) %"}
    ]}
  ]
}
